Experimental data from patent US12144802B2, “Pharmaceutical compositions of roflumilast and solvents capable of dissolving high amounts of the drug” (ARCUTIS BIOTHERAPEUTICS, INC., priority 2022, dated 2024).

Assay: solubility (saturation concentration) of roflumilast in solvent-water blends, HPLC after 0.2 micron filtration
Assay type: physicochemical
Conditions: controlled room temperature
Protocol: The solubility of roflumilast in various solvents was determined. Compositions of roflumilast and the solvents identified in Table 1 were prepared. To prepare the compositions, 10 g of a solvent-water blend was added into a 20 mL clear glass vial. 0.05 g of the active pharmaceutical ingredient (API), roflumilast, was added into the vial. The vial was mixed on a jar roller at controlled room temperature at an appropriate speed. A visual evaluation was performed after shaking. If all of the API was dissolved, an additional 0.05 g of API was added into the vial and further mixing was performed. If any API remained undissolved, the total amount of API added to the vial was recorded. The visual inspection was repeated as necessary until no more API could be dissolved. For each solvent, the solubility was determined by syringe filtering (0.2 micron filter) the solvent blend to remove undissolved roflumilast and determining the amount of dissolved roflumilast using HPLC analysis. Composition of the solvent blends were an equal molar solvent-water mixtures, as well as a 1:2 (weight:weight) solvent-water blends. Transcutol P, which is described for use with roflumilast in U.S. Patent Publication No. 2019/009133, was used as a reference point in Example 1.

In the case of O=C(Nc1c(Cl)cncc1Cl)c1ccc(OC(F)F)c(OCC2CC2)c1 [roflumilast, N-(3,5-dichloropyrid-4-yl)-3-cyclopropylmethoxy-4-difluoromethoxybenzamide], the “μg roflumilast per mL blend (saturation concentration)” value (“μg roflumilast per mL blend” below) (1:2 solvent to water (weight:weight), reference solvent Transcutol P (111-90-0), 5.00 g solvent, 10.01 g water) is reported as 45.01 µg/mL, the “μg roflumilast per mL blend” value (1:2 solvent to water (weight:weight), solvent 1,2-hexanediol (6920-22-5), 5.02 g solvent, 10.02 g water) is reported as 293.26 µg/mL and the “μg roflumilast per mL blend” value (1:2 solvent to water (weight:weight), solvent 1,2-pentanediol (3174-67-2), 5.01 g solvent, 10.04 g water) is reported as 139.71 µg/mL. For the same compound, the “μg roflumilast per mL blend” value (1:2 solvent to water (weight:weight), solvent 1,3-butylene glycol (107-88-0), 5.01 g solvent, 10.00 g water) was 11.27 µg/mL, the “μg roflumilast per mL blend” value (1:2 solvent to water (weight:weight), solvent 1,3-propanediol (504-63-2), 5.01 g solvent, 10.02 g water) was 6.23 µg/mL and the “μg roflumilast per mL blend” value (1:2 solvent to water (weight:weight), solvent 1,6-hexanediol (629-11-8), 5.01 g solvent, 10.02 g water) was 112.31 µg/mL. The “μg roflumilast per mL blend” value (1:2 solvent to water (weight:weight), solvent 2-(2-butoxy-ethoxy)ethanol (112-34-5), 5.01 g solvent, 10.01 g water) was 802.24 µg/mL, the “μg roflumilast per mL blend” value (1:2 solvent to water (weight:weight), solvent 5-methyloxolan-2-one (108-29-2), 5.01 g solvent, 10.01 g water) was 392.14 µg/mL and the “μg roflumilast per mL blend” value (1:2 solvent to water (weight:weight), solvent Pantolactone (599-04-2), 5.03 g solvent, 10.02 g water) was 62.04 µg/mL. The “μg roflumilast per mL blend” value (1:2 solvent to water (weight:weight), solvent dipropylene glycol (25265-71-8), 5.01 g solvent, 10.01 g water) was 34.44 µg/mL, the “μg roflumilast per mL blend” value (1:2 solvent to water (weight:weight), solvent propylene glycol methyl ethyl acetate (107-98-2), 5.01 g solvent, 10.03 g water) was 65.80 µg/mL and the “μg roflumilast per mL blend” value (equal molar solvent-water blend, reference solvent Transcutol P (111-90-0), 2.00 g solvent, 14.81 g water) was 2.55 µg/mL. The “μg roflumilast per mL blend” value (equal molar solvent-water blend, solvent 1,2-hexanediol (6920-22-5), 2.00 g solvent, 13.24 g water) was 37.67 µg/mL, the “μg roflumilast per mL blend” value (equal molar solvent-water blend, solvent 1,2-pentanediol (3174-67-2), 2.21 g solvent, 12.80 g water) was 4.16 µg/mL and the “μg roflumilast per mL blend” value (equal molar solvent-water blend, solvent 1,3-butylene glycol (107-88-0), 2.52 g solvent, 12.51 g water) was 1.46 µg/mL. For the same compound, the “μg roflumilast per mL blend” value (equal molar solvent-water blend, solvent 1,3-propanediol (504-63-2), 3.00 g solvent, 12.60 g water) was 2.77 µg/mL, the “μg roflumilast per mL blend” value (equal molar solvent-water blend, solvent 1,6-hexanediol (629-11-8), 2.00 g solvent, 13.11 g water) was 5.81 µg/mL and the “μg roflumilast per mL blend” value (equal molar solvent-water blend, solvent 2-(2-butoxy-ethoxy)ethanol (112-34-5), 1.50 g solvent, 13.50 g water) was 2.29 µg/mL. For the same compound, the “μg roflumilast per mL blend” value (equal molar solvent-water blend, solvent 5-methyloxolan-2-one (108-29-2), 2.51 g solvent, 14.03 g water) was 7.80 µg/mL, the “μg roflumilast per mL blend” value (equal molar solvent-water blend, solvent Pantolactone (599-04-2), 2.00 g solvent, 14.41 g water) was 0.96 µg/mL and the “μg roflumilast per mL blend” value (equal molar solvent-water blend, solvent dipropylene glycol (25265-71-8), 2.02 g solvent, 14.84 g water) was 2.27 µg/mL. For the same compound, the “μg roflumilast per mL blend” value (equal molar solvent-water blend, solvent propylene glycol methyl ethyl acetate (107-98-2), 2.50 g solvent, 12.52 g water) was 6.04 µg/mL.
